# What was measured:
# Assay type in all cases: in vivo
# [1] = tested on: transplanted Oryza sativa; test: Test Example 1: effect on crop, application before weed generation in submerged conditions; settings: Application herbicide amount 320 g/ha; Seventeenth Table
# Outline: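 Submerged pot test: alluvial soil, 4 cm water, seeds sown mixed, 2.5-leaf rice transplanted; emulsion in water applied to surface day of sowing, dose g/ha; greenhouse 25–30° C.; 3 wk; 0–5 rating.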
# Cyperus difformis = test: Test Example 3: herbicidal effect by application to foliage (Wagner pot, water depth 0.1-0.5 cm); settings: Nineteenth Table; application to foliage; application herbicide amount 320 g/ha
# Outline: (§1)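 Rice-field weeds and directly sown rice were grown 14 days in flooded alluvial soil (water depth 0.1–0.5 cm) at 25–30 °C in a greenhouse. An emulsion formulation diluted to the stated g/ha rate was sprayed onto stems and leaves. Effects were scored on a 0–5 scale (herbicidal ratio bands) three weeks after treatment.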
# [2] = tested on: Echinochloa crus-galli var. crus-galli; test: as above; settings: Nineteenth Table; application to foliage; application herbicide amount 320 g/ha
# Outline: as §1
# Leptochloa chinensis = test: as above; settings: Nineteenth Table; application to foliage; application herbicide amount 320 g/ha
# Outline: as §1
# [3] = tested on: Beta vulgaris ssp. vulgaris; test: Test Example 4: effect on crop by application to foliage (diluvial soil, plastic box); settings: Application herbicide amount 320 g/ha; effect on crop
# Outline: (§2)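 Read-out is a 0–5 visual grade of herbicidal ratio (5: ≥90%, almost withered; 0: ≤5%) taken three weeks after treatment. Compound was applied as a diluted emulsion to stem and leaf parts of 14-day greenhouse-grown plants (25° C. to 30° C.) at rates expressed as g/ha.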
# Brassica campestris L. = test: as above; settings: Application herbicide amount 320 g/ha; effect on crop
# Outline: as §2
# Glycine max = test: as above; settings: Application herbicide amount 320 g/ha; effect on crop
# Outline: as §2
# Zea mays = test: as above; settings: Application herbicide amount 320 g/ha; effect on crop
# Outline: as §2
# [4] = tested on: directly sowed Oryza sativa; test: as above; settings: Application herbicide amount 320 g/ha; effect on crop
# Outline: as §2
SMILES,a: transplanted Oryza sativa (effect on crop grade) [1],E (herbicidal effect grade) (Cyperus difformis),H (herbicidal effect grade) [2],D (herbicidal effect grade) (Leptochloa chinensis),f [3],g (Brassica campestris L.),c (Glycine max),b (Zea mays),d [4]
Cc1cc(-c2nnc3c(C(=O)Nc4nnc(C)o4)ccc(C(F)(F)F)n23)n(C)n1 [1-056],3 (Herbicidal ratio of 40% or more and less than 70%),5 (Herbicidal ratio of 90% or more (almost completely withered)),5 (Herbicidal ratio of 90% or more (almost completely withered)),5 (Herbicidal ratio of 90% or more (almost completely withered)),5 (Herbicidal ratio of 90% or more (almost completely withered)),5 (Herbicidal ratio of 90% or more (almost completely withered)),4 (Herbicidal ratio of 70% or more and less than 90%),4 (Herbicidal ratio of 70% or more and less than 90%),4 (Herbicidal ratio of 70% or more and less than 90%)
Cc1nnc(NC(=O)c2ccc(C(F)(F)F)n3c(-c4cccs4)nnc23)o1 [1-057],2 (Herbicidal ratio of 20% or more and less than 40%),5 (Herbicidal ratio of 90% or more (almost completely withered)),5 (Herbicidal ratio of 90% or more (almost completely withered)),5 (Herbicidal ratio of 90% or more (almost completely withered)),5 (Herbicidal ratio of 90% or more (almost completely withered)),3 (Herbicidal ratio of 40% or more and less than 70%),1 (Herbicidal ratio of 5% or more and less than 20%),0 (Herbicidal ratio of 5% or less (almost no effect)),3 (Herbicidal ratio of 40% or more and less than 70%)
Cc1nnc(NC(=O)c2ccc(C(F)(F)F)n3c(-c4cncs4)nnc23)o1 [1-058],4 (Herbicidal ratio of 70% or more and less than 90%),5 (Herbicidal ratio of 90% or more (almost completely withered)),5 (Herbicidal ratio of 90% or more (almost completely withered)),5 (Herbicidal ratio of 90% or more (almost completely withered)),5 (Herbicidal ratio of 90% or more (almost completely withered)),4 (Herbicidal ratio of 70% or more and less than 90%),4 (Herbicidal ratio of 70% or more and less than 90%),5 (Herbicidal ratio of 90% or more (almost completely withered)),4 (Herbicidal ratio of 70% or more and less than 90%)
C#CCSc1nnc2c(C(=O)Nc3nnc(C)o3)ccc(C(F)(F)F)n12 [1-065],0 (Herbicidal ratio of 5% or less (almost no effect)),3 (Herbicidal ratio of 40% or more and less than 70%),3 (Herbicidal ratio of 40% or more and less than 70%),1 (Herbicidal ratio of 5% or more and less than 20%),4 (Herbicidal ratio of 70% or more and less than 90%),2 (Herbicidal ratio of 20% or more and less than 40%),0 (Herbicidal ratio of 5% or less (almost no effect)),0 (Herbicidal ratio of 5% or less (almost no effect)),3 (Herbicidal ratio of 40% or more and less than 70%)
Cc1nnc(NC(=O)c2ccc(C(F)(F)C(F)(F)F)n3c(C(C)C)nnc23)o1 [1-066],2 (Herbicidal ratio of 20% or more and less than 40%),3 (Herbicidal ratio of 40% or more and less than 70%),1 (Herbicidal ratio of 5% or more and less than 20%),4 (Herbicidal ratio of 70% or more and less than 90%),4 (Herbicidal ratio of 70% or more and less than 90%),0 (Herbicidal ratio of 5% or less (almost no effect)),0 (Herbicidal ratio of 5% or less (almost no effect)),0 (Herbicidal ratio of 5% or less (almost no effect)),3 (Herbicidal ratio of 40% or more and less than 70%)
Cc1nnc(NC(=O)c2ccc(C(F)(F)F)n3c(CO)nnc23)o1 [1-067],0 (Herbicidal ratio of 5% or less (almost no effect)),5 (Herbicidal ratio of 90% or more (almost completely withered)),5 (Herbicidal ratio of 90% or more (almost completely withered)),5 (Herbicidal ratio of 90% or more (almost completely withered)),4 (Herbicidal ratio of 70% or more and less than 90%),4 (Herbicidal ratio of 70% or more and less than 90%),0 (Herbicidal ratio of 5% or less (almost no effect)),2 (Herbicidal ratio of 20% or more and less than 40%),3 (Herbicidal ratio of 40% or more and less than 70%)
Cc1nnc(NC(=O)c2ccc(C(F)(F)F)n3c(C=O)nnc23)o1 [1-068],0 (Herbicidal ratio of 5% or less (almost no effect)),5 (Herbicidal ratio of 90% or more (almost completely withered)),5 (Herbicidal ratio of 90% or more (almost completely withered)),5 (Herbicidal ratio of 90% or more (almost completely withered)),4 (Herbicidal ratio of 70% or more and less than 90%),4 (Herbicidal ratio of 70% or more and less than 90%),0 (Herbicidal ratio of 5% or less (almost no effect)),2 (Herbicidal ratio of 20% or more and less than 40%),3 (Herbicidal ratio of 40% or more and less than 70%)
COc1ccc(Cc2nnc3c(C(=O)Nc4nnc(C)o4)ccc(C(F)(F)F)n23)cc1 [1-069],0 (Herbicidal ratio of 5% or less (almost no effect)),5 (Herbicidal ratio of 90% or more (almost completely withered)),5 (Herbicidal ratio of 90% or more (almost completely withered)),5 (Herbicidal ratio of 90% or more (almost completely withered)),5 (Herbicidal ratio of 90% or more (almost completely withered)),3 (Herbicidal ratio of 40% or more and less than 70%),1 (Herbicidal ratio of 5% or more and less than 20%),0 (Herbicidal ratio of 5% or less (almost no effect)),3 (Herbicidal ratio of 40% or more and less than 70%)
COc1cc(OC)cc(-c2nnc3c(C(=O)Nc4nnc(C)o4)ccc(C(F)(F)F)n23)c1 [1-070],3 (Herbicidal ratio of 40% or more and less than 70%),5 (Herbicidal ratio of 90% or more (almost completely withered)),4 (Herbicidal ratio of 70% or more and less than 90%),5 (Herbicidal ratio of 90% or more (almost completely withered)),4 (Herbicidal ratio of 70% or more and less than 90%),3 (Herbicidal ratio of 40% or more and less than 70%),0 (Herbicidal ratio of 5% or less (almost no effect)),0 (Herbicidal ratio of 5% or less (almost no effect)),4 (Herbicidal ratio of 70% or more and less than 90%)

# Source: patent US9708314B2, “Heterocyclic amide compound” (NISSAN CHEMICAL INDUSTRIES, LTD., priority 2013, dated 2017)
